Assay results: ChEMBL document CHEMBL1268905, “3D-QSAR and docking studies on pyrazolo[4,3-h]qinazoline-3-carboxamides as cyclin-dependent kinase 2 (CDK2) inhibitors” (Bioorg Med Chem Lett, 2010)

Biological target: Cyclin-dependent kinase 2/cyclin A (Homo sapiens, UniProt P24941)
Test: Inhibition of CDK2/cyclin A
Format: protein-complex assay

**Q.** With NC(=O)c1cn(Cc2ccccc2)c2c1CCc1cnc(NC3CCCC3)nc1-2 as the molecule, how does the IC50 read?
**A.** 0.023 µM

**Q.** Which IC50 does the source give for NC(=O)c1cn(-c2ccccc2)c2c1CCc1cnc(NC3CCCC3)nc1-2 here?
**A.** 0.02 µM

**Q.** With CN1CCN(c2ccc(Nc3ncc4c(n3)-c3c(c(C(N)=O)cn3C)C(C)(C)C4)cc2)CC1 as the molecule, how does the IC50 read?
**A.** 0.017 µM

**Q.** How did the IC50 turn out when NC(=O)c1cn(-c2ccccn2)c2c1CCc1cnc(NC3CCCC3)nc1-2 was run?
**A.** 0.052 µM

**Q.** Which IC50 does the source give for COc1ccc(-n2cc(C(N)=O)c3c2-c2nc(NC4CCCC4)ncc2CC3)cc1 here?
**A.** 0.006 µM

**Q.** Which IC50 does the source give for CNC(=O)c1cn(C)c2c1C(C)(C)Cc1cnc(Nc3cccc(N4CCN(C)CC4)c3)nc1-2 here?
**A.** 0.031 µM

**Q.** For CNC(=O)c1cn(C)c2c1C(C)(C)Cc1cnc(Nc3ccc(N4CCOCC4)cc3)nc1-2, which IC50 is on record?
**A.** 0.137 µM

**Q.** With NC(=O)c1cn(-c2ccc(S(N)(=O)=O)cc2)c2c1CCc1cnc(NC3CCCC3)nc1-2 as the molecule, how does the IC50 read?
**A.** 0.005 µM

**Q.** Which IC50 does the source give for NC(=O)c1cn(CCO)c2c1CCc1cnc(NC3CCCC3)nc1-2 here?
**A.** 0.008 µM

**Q.** How did the IC50 turn out when CNC(=O)c1cn(C)c2c1C(C)(C)Cc1cnc(Nc3cccc(N4CCOCC4)c3)nc1-2 was run?
**A.** 0.248 µM

**Q.** With CNC(=O)c1cn(C)c2c1C(C)(C)Cc1cnc(Nc3ccc(OC4CCN(C)CC4)cc3)nc1-2 as the molecule, how does the IC50 read?
**A.** 0.029 µM

**Q.** With NC(=O)c1cn(CC(F)(F)F)c2c1CCc1cnc(NC3CCCC3)nc1-2 as the molecule, how does the IC50 read?
**A.** 0.005 µM

**Q.** For CN1CCC(n2cc(C(N)=O)c3c2-c2nc(NC4CCCC4)ncc2CC3)CC1, which IC50 is on record?
**A.** 0.006 µM

**Q.** With CNC(=O)c1cn(C)c2c1C(C)(C)Cc1cnc(Nc3cccc(OC4CCN(C)CC4)c3)nc1-2 as the molecule, how does the IC50 read?
**A.** 0.047 µM

**Q.** Which IC50 does the source give for CNC(=O)c1cn(C)c2c1C(C)(C)Cc1cnc(Nc3ccc(CN4CCN(C)CC4)cc3)nc1-2 here?
**A.** 0.055 µM

**Q.** Which IC50 does the source give for CNC(=O)c1cn(C2CCN(C)CC2)c2c1CCc1cnc(NC3CCCC3)nc1-2 here?
**A.** 0.059 µM

**Q.** CC(=O)N1CCC(n2cc(C(N)=O)c3c2-c2nc(NC4CCCC4)ncc2CC3)CC1 was tested. Which IC50 did it give?
**A.** 0.007 µM

**Q.** For CNC(=O)c1cn(C)c2c1C(C)(C)Cc1cnc(Nc3cccc(CN4CCN(C)CC4)c3)nc1-2, which IC50 is on record?
**A.** 0.059 µM

**Q.** For CNC(=O)c1cn(C)c2c1C(C)(C)Cc1cnc(Nc3ccc(CN4CCOCC4)cc3)nc1-2, which IC50 is on record?
**A.** 0.036 µM

**Q.** With CNC(=O)c1cn(C)c2c1CCc1cnc(NC3CCN(C)CC3)nc1-2 as the molecule, how does the IC50 read?
**A.** 4.58 µM

**Q.** For CNC(=O)c1cn(C)c2c1C(C)(C)Cc1cnc(Nc3cccc(CN4CCOCC4)c3)nc1-2, which IC50 is on record?
**A.** 0.16 µM

**Q.** For CNC(=O)c1cn(C)c2c1C(C)(C)Cc1cnc(Nc3ccc(N(C)C)cc3)nc1-2, which IC50 is on record?
**A.** 0.059 µM

**Q.** With CNC(=O)c1cn(C)c2c1CCc1cnc(NC3CCN(C(C)=O)CC3)nc1-2 as the molecule, how does the IC50 read?
**A.** 0.032 µM

**Q.** With Cn1cc(C(N)=O)c2c1-c1nc(NC3CCN(C(=O)c4ccccc4)CC3)ncc1CC2 as the molecule, how does the IC50 read?
**A.** 0.003 µM

**Q.** How did the IC50 turn out when CNC(=O)c1cn(C)c2c1C(C)(C)Cc1cnc(Nc3cccc(N(C)C)c3)nc1-2 was run?
**A.** 0.22 µM

**Q.** CNC(=O)c1cn(C)c2c1C(C)(C)Cc1cnc(Nc3ccc(CN(C)C)cc3)nc1-2 was tested. Which IC50 did it give?
**A.** 0.035 µM

**Q.** Which IC50 does the source give for Cn1cc(C(N)=O)c2c1-c1nc(NCc3ccccc3)ncc1CC2 here?
**A.** 0.0511 µM

**Q.** How did the IC50 turn out when CNC(=O)c1cn(C)c2c1CCc1cnc(NC3CCN(C(=O)c4ccccc4)CC3)nc1-2 was run?
**A.** 0.025 µM

**Q.** How did the IC50 turn out when CN1CCN(C(=O)N2CCC(Nc3ncc4c(n3)-c3c(c(C(N)=O)cn3C)CC4)CC2)CC1 was run?
**A.** 0.012 µM

**Q.** CNC(=O)c1cn(C)c2c1C(C)(C)Cc1cnc(Nc3cccc(CN(C)C)c3)nc1-2 was tested. Which IC50 did it give?
**A.** 0.083 µM

**Q.** With COc1cccc(CNc2ncc3c(n2)-c2c(c(C(N)=O)cn2C)CC3)c1 as the molecule, how does the IC50 read?
**A.** 0.0659 µM

**Q.** Which IC50 does the source give for COc1ccc(CNc2ncc3c(n2)-c2c(c(C(N)=O)cn2C)CC3)cc1 here?
**A.** 0.0579 µM

**Q.** How did the IC50 turn out when CNC(=O)c1cn(C)c2c1CCc1cnc(NC3CCN(C(=O)N4CCN(C)CC4)CC3)nc1-2 was run?
**A.** 1.12 µM

**Q.** For CCOC(=O)N1CCC(Nc2ncc3c(n2)-c2c(c(C(N)=O)cn2C)CC3)CC1, which IC50 is on record?
**A.** 0.001 µM

**Q.** For Cn1cc(C(N)=O)c2c1-c1nc(NCc3ccc(Br)cc3)ncc1CC2, which IC50 is on record?
**A.** 0.0809 µM

**Q.** How did the IC50 turn out when CC(=O)Nc1ccc(CNc2ncc3c(n2)-c2c(c(C(N)=O)cn2C)CC3)cc1 was run?
**A.** 0.013 µM

**Q.** How did the IC50 turn out when CCOC(=O)N1CCC(Nc2ncc3c(n2)-c2c(c(C(=O)NC)cn2C)CC3)CC1 was run?
**A.** 0.0579 µM

**Q.** For Cn1cc(C(N)=O)c2c1-c1nc(NC3CCN(S(C)(=O)=O)CC3)ncc1CC2, which IC50 is on record?
**A.** 0.001 µM

**Q.** With Cn1cc(C(N)=O)c2c1-c1nc(NCc3ccc(S(C)(=O)=O)cc3)ncc1CC2 as the molecule, how does the IC50 read?
**A.** 0.038 µM

**Q.** CN1CCN(c2cccc(CNc3ncc4c(n3)-c3c(c(C(N)=O)cn3C)CC4)c2)CC1 was tested. Which IC50 did it give?
**A.** 0.104 µM

**Q.** For Cn1cc(C(N)=O)c2c1-c1nc(NC3CCN(S(=O)(=O)c4ccccc4)CC3)ncc1CC2, which IC50 is on record?
**A.** 0.004 µM

**Q.** Which IC50 does the source give for CN1CCN(c2ccc(CNc3ncc4c(n3)-c3c(c(C(N)=O)cn3C)CC4)cc2)CC1 here?
**A.** 0.017 µM

**Q.** Which IC50 does the source give for Cn1cc(C(N)=O)c2c1-c1nc(NCc3ccncc3)ncc1CC2 here?
**A.** 0.021 µM

**Q.** For CNC(=O)c1cn(C)c2c1CCc1cnc(NC3CCN(S(=O)(=O)c4ccccc4)CC3)nc1-2, which IC50 is on record?
**A.** 0.005 µM

**Q.** For Cn1cc(C(N)=O)c2c1-c1nc(NCc3cccnc3)ncc1CC2, which IC50 is on record?
**A.** 0.021 µM

**Q.** With Cn1cc(C(N)=O)c2c1-c1nc(NCc3ccccn3)ncc1CC2 as the molecule, how does the IC50 read?
**A.** 0.0869 µM

**Q.** How did the IC50 turn out when Cn1cc(C(=O)NCCO)c2c1-c1nc(Nc3ccccc3)ncc1CC2 was run?
**A.** 0.074 µM

**Q.** With Cn1cc(C(N)=O)c2c1-c1nc(NCCN3CCOCC3)ncc1CC2 as the molecule, how does the IC50 read?
**A.** 0.209 µM

**Q.** Cn1cc(C(N)=O)c2c1-c1nc(NCCO)ncc1CC2 was tested. Which IC50 did it give?
**A.** 0.019 µM

**Q.** For CCN1CCC(Nc2ncc3c(n2)-c2c(c(C(N)=O)cn2C)CC3)CC1, which IC50 is on record?
**A.** 0.149 µM

**Q.** Which IC50 does the source give for Cn1cc(C(=O)NCc2ccccc2)c2c1-c1nc(Nc3ccccc3)ncc1CC2 here?
**A.** 1.05 µM

**Q.** CNC(=O)c1cn(C)c2c1CCc1cnc(NC3CCCC3)nc1-2 was tested. Which IC50 did it give?
**A.** 0.0971 µM

**Q.** For CC(CN(C)C)NC(=O)c1cn(C)c2c1CCc1cnc(NC3CCCC3)nc1-2 (centres undefined), which IC50 is on record?
**A.** 1.76 µM

**Q.** With CN1CCN(c2ccc(Nc3ncc4c(n3)-c3c(c(C(N)=O)cn3C)CC4)cc2)CC1 as the molecule, how does the IC50 read?
**A.** 0.002 µM

**Q.** CN1CCN(c2cccc(Nc3ncc4c(n3)-c3c(c(C(N)=O)cn3C)CC4)c2)CC1 was tested. Which IC50 did it give?
**A.** 0.001 µM

**Q.** Which IC50 does the source give for CN(O)C(=O)c1cn(C)c2c1CCc1cnc(NC3CCCC3)nc1-2 here?
**A.** 0.175 µM

**Q.** For Cn1cc(C(=O)N(O)Cc2ccccc2)c2c1-c1nc(NC3CCCC3)ncc1CC2, which IC50 is on record?
**A.** 1.37 µM

**Q.** Which IC50 does the source give for Cn1cc(C(N)=O)c2c1-c1nc(Nc3ccc(N4CCOCC4)cc3)ncc1CC2 here?
**A.** 0.014 µM

**Q.** For Cn1cc(C(N)=O)c2c1-c1nc(Nc3ccccc3)ncc1CC2(C)C, which IC50 is on record?
**A.** 0.024 µM
